Experimental findings from patent US20050124559A1, “Antimicrobial agent” (priority 2002, published 2005) are described below.

Holding throughout (type): cell-based
Experiment [1] relates to Staphylococcus aureus. Put plainly: Zone Inhibition Assay. Set-up: key: +++=large zone of inhibition; −=no zone of inhibition. The settings on record: 3 μL of a 10 μg/mL sample on a filter disc on a lawn of bacteria, arbitrary scale. The procedure:
(§1) Inhibition of various bacteria by compound 1 (n=6, and n=4) are described in Table 2. The biological data were determined by a Zone Inhibition Assay method. The zone of inhibition was measured using an arbitrary scale: (+++=large zone of inhibition, −=no zone of inhibition). Compound 1 (n=6, and n=4) were tested by spotting 3 μL of a 10 μg/mL sample onto a filter disc which was placed on a lawn of bacteria. N.B. Compound 1 (n=8) was used as a positive control.

The next experiment relates to Mycobacterium smegmatis. Put plainly: Zone Inhibition Assay. Set-up: key: +++=large zone of inhibition; −=no zone of inhibition. Particulars: 3 μL of a 10 μg/mL sample on a filter disc on a lawn of bacteria, arbitrary scale. How it is done: as §1
The next experiment deals with Bacillus subtilis. Put plainly: Zone Inhibition Assay. On the set-up: key: +++=large zone of inhibition; −=no zone of inhibition. The settings on record: 3 μL of a 10 μg/mL sample on a filter disc on a lawn of bacteria, arbitrary scale. How it is done:
as §1

A further experiment relates to Enterococcus faecalis. Put plainly: Zone Inhibition Assay. The settings on record: 3 μL of a 10 μg/mL sample on a filter disc on a lawn of bacteria, arbitrary scale. On the set-up: key: +++=large zone of inhibition; −=no zone of inhibition. The procedure:
as §1

Experiment [2] concerns S. aureus (Coagulas-negative). Put plainly: MIC by BACTEC or Mueller-Hinton agar method. How it is done: (§2) Inhibition of various bacteria by compound 1 (n=8) is described in Table 1. The biological data were determined by either the BACTEC or Mueller-Hinton agar method and expressed as a minimum inhibitory concentration (MIC).
In experiment [3] the test system is Staphylococcus aureus. The experiment is described as follows: MIC by BACTEC or Mueller-Hinton agar method. The procedure: as §2
A further experiment has as its system M. avium intracellulare. The experiment is described as follows: MIC by BACTEC or Mueller-Hinton agar method. How it is done: as §2
Experiment [4] has as its system Mycobacterium tuberculosis. Put plainly: MIC by BACTEC or Mueller-Hinton agar method. The procedure:
as §2

Another experiment deals with M. fortuitum. Put plainly: MIC by BACTEC or Mueller-Hinton agar method. The procedure:
as §2

For experiment [5], the system named is Rapid Growing Atypical Mycobacterial Strains. Put plainly: MIC by BACTEC or Mueller-Hinton agar method. How it is done:
as §2

In the next experiment the test system is M. abscessus. Put plainly: MIC by BACTEC or Mueller-Hinton agar method. The procedure: as §2
A further experiment concerns Nocardia asteroides. The experiment is described as follows: MIC by BACTEC or Mueller-Hinton agar method. How it is done:
as §2

A further experiment has as its system N. nova. The experiment is described as follows: MIC by BACTEC or Mueller-Hinton agar method. How it is done: as §2
For another experiment, the system named is Enterococci sp. Put plainly: MIC by BACTEC or Mueller-Hinton agar method. The procedure: as §2

Turning to `CCCCCCCCN(CCCCCCCC)S[C@@H]1O[C@@H]([C@H](O)CO)[C@H](O)[C@H]1O` [1 (n=6), N,N-Dioctyl-S-(1-thio-β-D-galactofuranosyl)sulfenamide], the “Zone of Inhibition” value in the experiment on Staphylococcus aureus [1], with Mycobacterium smegmatis, with Bacillus subtilis and in the experiment with Enterococcus faecalis was “+++” throughout.

In the case of `CCCCCCCCCCN(CCCCCCCCCC)S[C@@H]1O[C@@H]([C@H](O)CO)[C@H](O)[C@H]1O` [Compound 1 (n=8), N,N-Didecyl-S-(1-thio-β-D-galactofuranosyl)sulfenamide], the MIC (as a rule, the least concentration at which growth counts as inhibited) in experiment [2] was 5 to 50 µg/mL; in the experiment on Staphylococcus aureus [3], 5 to 50 µg/mL; with M. avium intracellulare, under 5 µg/mL; in experiment [4], under 5 µg/mL; against M. fortuitum it was under 5 µg/mL; in experiment [5] it was under 5 µg/mL. The MIC was under 5 µg/mL in the experiment on M. abscessus, under 5 µg/mL with Nocardia asteroides, under 5 µg/mL in the experiment with N. nova and 5 to 50 µg/mL with Enterococci sp..
